Measured values taken from ChEMBL document CHEMBL1142919, “Naphthoindole-based analogues of tryptophan and tryptamine: synthesis and cytotoxic properties” (Bioorg Med Chem, 2007).
Active and inactive are the calls of the source. The calls are words filed in the database; no cut-off is given here.

Experiments:
HCT-116 [1] = test: Antiproliferative activity against human HCT116 cells expressing wild-type p53 after 72 hrs by MTT test; assay type: functional, cell-based; settings: HCT-116, 72 h
K562 [2] = test: Antiproliferative activity against human K562 cells after 72 hrs by MTT test; assay type: functional, cell-based; settings: K562, 72 h
[3] = molecular target: T1, DNA topoisomerase 1 (Homo sapiens) (UniProt P11387); test: Inhibition of topoisomerase 1 at >50 uM
T1 sequence (whole entry): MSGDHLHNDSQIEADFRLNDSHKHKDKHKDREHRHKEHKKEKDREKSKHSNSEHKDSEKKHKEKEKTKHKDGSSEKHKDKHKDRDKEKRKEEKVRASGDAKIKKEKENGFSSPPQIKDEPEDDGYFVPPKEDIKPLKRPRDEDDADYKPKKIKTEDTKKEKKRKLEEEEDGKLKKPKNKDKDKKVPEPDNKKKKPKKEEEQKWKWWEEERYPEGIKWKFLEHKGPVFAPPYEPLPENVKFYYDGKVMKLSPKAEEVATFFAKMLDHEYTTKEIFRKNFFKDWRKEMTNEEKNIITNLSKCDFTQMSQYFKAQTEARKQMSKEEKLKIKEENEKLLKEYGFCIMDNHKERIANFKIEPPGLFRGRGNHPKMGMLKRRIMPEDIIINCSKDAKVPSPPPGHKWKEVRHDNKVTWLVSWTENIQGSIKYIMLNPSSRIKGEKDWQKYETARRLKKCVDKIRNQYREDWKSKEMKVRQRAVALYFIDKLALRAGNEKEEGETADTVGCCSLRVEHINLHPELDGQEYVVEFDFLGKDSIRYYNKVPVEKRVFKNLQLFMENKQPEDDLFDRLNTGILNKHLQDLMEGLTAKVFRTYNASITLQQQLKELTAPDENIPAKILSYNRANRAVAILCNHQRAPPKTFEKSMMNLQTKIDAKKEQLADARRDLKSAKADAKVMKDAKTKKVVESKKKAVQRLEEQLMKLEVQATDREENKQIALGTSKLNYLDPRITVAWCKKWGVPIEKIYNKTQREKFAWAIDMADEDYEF

[4] = Antiproliferative activity against human p53 deficient HCT116 p53-/- cells after 72 hrs by MTT test; assay type: functional, cell-based; settings: HCT-116, 72 h
[5] = molecular target: T1, DNA topoisomerase 1 (Homo sapiens); test: Inhibition of topoisomerase 1 assessed as attenuation of DNA relaxation
K562 [6] = test: Resistance index, Ratio of IC50 for human drug-resistant K562i/S9 cells to IC50 for human K562 cells; assay type: functional
[7] = Antiproliferative activity against human multidrug-resistant K562i/S9 cells expressing Pgp after 72 hrs by MTT test; assay type: functional, cell-based; settings: K562i/S9, 72 h
[8] = molecular target: T1, DNA topoisomerase 1 (Homo sapiens); test: Inhibition of topoisomerase 1 at 3 uM
HCT-116 [9] = test: Resistance index, Ratio of IC50 for human p53 deficient HCT116 p53-/- cells to IC50 for human wild type HCT116 cells; assay type: functional

Structure (SMILES)	IC50 (HCT-116 [1]) [µM]	IC50 (K562 [2]) [µM]	Activity [3]	IC50 [4] [µM]	Activity [5]	Ratio IC50 (K562 [6])	IC50 [7] [µM]	Activity [8]	Ratio IC50 (HCT-116 [9])
CCOC(=O)C(N)Cc1c[nH]c2c(O)c3c(c(O)c12)C(=O)c1ccccc1C3=O (stereo unspecified)	14.9	> 50							
COc1cccc2c1C(=O)c1c(O)c3c(c(O)c1C2=O)C[C@@](O)(C(=O)CO)C[C@@H]3O[C@H]1C[C@H](N)[C@H](O)[C@H](C)O1 [DOXORUBICIN]	1.4		Active	4.4					
NCCc1c[nH]c2c(O)c3c(c(O)c12)C(=O)c1ccccc1C3=O	1.1	4		1.2	Dose-dependent effect	0.6	2.2	Active	1.1
NC(Cc1c[nH]c2c(O)c3c(c(O)c12)C(=O)c1ccccc1C3=O)C(=O)O (stereo unspecified)	> 50	> 50							
CC(N)Cc1c[nH]c2c(O)c3c(c(O)c12)C(=O)c1ccccc1C3=O (stereo unspecified)	4.8	12		5		1.1	13.4		1
